Like-named read-outs stand apart in the source and are kept apart here. Marks after values point to notes of the source that are not given here. No end group written: not given here.
How the values were obtained:
[1] = biological target: DRB1*0101 (Homo sapiens, UniProt P01903+P01911, A100R/D57E/F55L/F60I/F76Y/I96L/L162R/M171V/P40L/Q125E/R42F/V115G/Y59C); assay: biochemical
[2] = biological target: T1, DRB1*0701 (Homo sapiens, UniProt P01903+P01911, A100R/A102G/A103Q/D57E/D86V/E43K/F76Y/K127E/L162R/M171V/P40G/Q125H/Q99D/R33Q/R42Y/R54Q/S133A/S66F/T210M/V115G/Y107V/Y59L/Y89S); assay: biochemical
[3] = biological target: T2, DRB1*1501 (Homo sapiens, UniProt P01903+P01911); assay: competition-based HLA binding assay
T2 construct: gift: William Kwok, Benaroya Institute, Seattle

[4] = biological target: DRB1*0401 (Homo sapiens, UniProt P01903+P01911, A100K/A169T/F76Y/I96L/K127E/L162R/M171V/N62H/P40V/Q125Y/R42H/S133A/S149N/S66Y/V115G/V209L/W38E); details: read-out: DRB1*0401 IC50; competition with biotin-Flu-HA 306–318 at 0.1 μM, 24 h, 37°C; NB = non-binder
[5] = tested on: PBMC; assay: two-step IFNγ ELISpot assay with human PBMC; assay type: cell-based; details: 7 d pre-culture with GAD65 peptide pool, 48 h restimulation, triplicate;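 further: background is unstimulated wells, counts given per 1 million cells, 200,000–250,000 cells per well, restimulated at 37°C, read by Zeiss plate reader, IL-2 and IL-7 fed during pre-culture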
[6] = biological target: T1, DRB1*0701; details: read-out: DRB1*0701 IC50; competition with biotin-Flu-HA 306–318 at 1 μM, 24 h, 37°C; NB = non-binder
[7] = Negative Control 674 PBMC, Tregitope + (5 μg/mL each human Tregitopes 167 and 289)
[8] = Negative Control 674 PBMC, Tregitope −
[9] = Subject D1100H (T1D) PBMC, Tregitope + (5 μg/mL each human Tregitopes 167 and 289)
[10] = Subject D1100H (T1D) PBMC, Tregitope −
[11] = Subject D1101H (T1D) PBMC, Tregitope + (5 μg/mL each human Tregitopes 167 and 289)
[12] = Subject D1101H (T1D) PBMC, Tregitope −
[13] = Subject D1104H (T1D) PBMC, Tregitope + (5 μg/mL each human Tregitopes 167 and 289)
[14] = Subject D1104H (T1D) PBMC, Tregitope −
[15] = Subject D1106H (T1D) PBMC, Tregitope + (5 μg/mL each human Tregitopes 167 and 289)
[16] = Subject D1106H (T1D) PBMC, Tregitope −
[17] = Subject D1107H (T1D) PBMC, Tregitope + (5 μg/mL each human Tregitopes 167 and 289)
[18] = Subject D1107H (T1D) PBMC, Tregitope −
[19] = Negative Control 668 PBMC, Tregitope + (5 μg/mL each human Tregitopes 167 and 289)
[20] = Negative Control 668 PBMC, Tregitope −
[21] = Negative Control 669 PBMC, Tregitope + (5 μg/mL each human Tregitopes 167 and 289)
[22] = Negative Control 669 PBMC, Tregitope −
[23] = Negative Control 670 PBMC, Tregitope + (5 μg/mL each human Tregitopes 167 and 289)
[24] = Negative Control 670 PBMC, Tregitope −
[25] = Subject D1105H (T1D) PBMC, Tregitope + (5 μg/mL each human Tregitopes 167 and 289)
[26] = Subject D1105H (T1D) PBMC, Tregitope −

| Substance | IC50 [1] [µM] | IC50 [2] [µM] | IC50 [3] [µM] | IC50 [4] [µM] | IFNγ ELISpot SFC over background [5, 7] [SFC over BG/10^6] | IFNγ ELISpot SFC over background [5, 8] [SFC over BG/10^6] | IFNγ ELISpot SFC over background [5, 9] [SFC over BG/10^6] | IFNγ ELISpot SFC over background [5, 10] [SFC over BG/10^6] | IFNγ ELISpot SFC over background [5, 11] [SFC over BG/10^6] | IFNγ ELISpot SFC over background [5, 12] [SFC over BG/10^6] | IFNγ ELISpot SFC over background [5, 13] [SFC over BG/10^6] | IFNγ ELISpot SFC over background [5, 14] [SFC over BG/10^6] | IFNγ ELISpot SFC over background [5, 15] [SFC over BG/10^6] | IFNγ ELISpot SFC over background [5, 16] [SFC over BG/10^6] | IFNγ ELISpot SFC over background [5, 17] | IFNγ ELISpot SFC over background [5, 18] [SFC over BG/10^6] | IFNγ ELISpot SFC over background [5, 19] [SFC over BG/10^6] | IFNγ ELISpot SFC over background [5, 20] [SFC over BG/10^6] | IFNγ ELISpot SFC over background [5, 21] | IFNγ ELISpot SFC over background [5, 22] [SFC over BG/10^6] | other results |
| --- | --- | --- | --- | --- | --- | --- | --- | --- | --- | --- | --- | --- | --- | --- | --- | --- | --- | --- | --- | --- | --- |
| VDVFKLWLMWRAKGTTGFEAH [GAD65_450–470] | 25.4 | 10.2 | 11.4 | > 50 |  |  |  |  |  |  |  |  |  |  |  |  |  |  |  |  |  |
| GAD65 protein: whole GAD65 protein (Kronus, UK) |  |  |  |  | 818 | 44 | 77 | 413 | 59 | 37 | 69 | 32 | 591 | 670 | 46 SFC over BG/10^6 | 95 |  |  |  |  |  |
| LGDKVNFFRMVISNPAATHQD [GAD65_550–570] |  |  |  | < 25 | 431 | 490 | 141 | 199 | 100 | 126 | 101 | 146 | 113 | 88 | 1** SFC over BG/10^6 | 160 | 440 | 312 | 30** SFC over BG/10^6 | 144 | IFNγ ELISpot SFC over background [5, 23]: −90 SFC over BG/10^6; IFNγ ELISpot SFC over background [5, 24]: 25 SFC over BG/10^6; IFNγ ELISpot SFC over background [5, 25]: 228* SFC over BG/10^6; IFNγ ELISpot SFC over background [5, 26]: 352 SFC over BG/10^6 |
| NMFTYEIAPVFVLLEYVTLKKMRE [GAD65_203–226] |  |  |  | < 25 | 109 | 168 |  |  | 51 | 157 | 154 | 221 | 138 | 207 |  |  | 460 | 475 | 52 SFC over BG/10^6 | 109 | IFNγ ELISpot SFC over background [5, 23]: 82** SFC over BG/10^6; IFNγ ELISpot SFC over background [5, 24]: 329 SFC over BG/10^6; IFNγ ELISpot SFC over background [5, 25]: 138* SFC over BG/10^6; IFNγ ELISpot SFC over background [5, 26]: 245 SFC over BG/10^6 |
| TTVYGAFDPLLAVAD [GAD65_338–352] | 4.1 |  |  | > 50 |  |  |  |  |  |  |  |  |  |  |  |  |  |  |  |  | IC50 ([3]; competition with biotin-MBP 84–102 at 0.5 μM, 24 h, 37°C, NB = non-binder, read-out: DRB1*1501 IC50): 31.3 µM; IC50 [6]: > 50 µM |
| GAISNMYAMMIARFKMFPEVKEKGM [GAD65_243–267] | < 5 | 8.7 | < 5 |  |  |  |  |  |  |  |  |  |  |  |  |  |  |  |  |  |  |

Source: article PMC3655598, “Application of IgG-Derived Natural Treg Epitopes (IgG Tregitopes) to Antigen-Specific Tolerance Induction in a Murine Model of Type 1 Diabetes” (Journal of Diabetes Research, 2013)
